≈ marks a conversion by molar mass, not a printed value. Read-outs that look alike come from different tables or passages of the source.
Tests used:
[1] = preparation of clofazimine carbomer gel with organic solvents; format: physicochemical; details: Carbomer 940 gel in water, pH 7.0
[2] = Solubility of clofazimine in various solvents; details: 25 °C, thermodynamic from solid
Experimental: Clofazimine was added to various solvents (2-5 mL) in a 10 mL glass vial, at 25° C., with stirring. […] This cycle was repeated until no further dissolution was observable. The suspension was then centrifuged and the supernatant filtered by microfiltration.

[3] = cited from earlier work; for time to reach peak plasma concentration (Tmax): oral administration
[4] = Solubility of clofazimine in fatty acids; format: physicochemical; details: fatty acid, 25 °C
[5] = target: Kv1.3 channels in human Jurkat E6-1 cells (Homo sapiens, UniProt P22001); assay: Inhibition of Kv1.3 channel current, voltage ramp protocol; details: for Inhibition ratio of Kv1.3 channel current in Jurkat E6-1 cells: n 3
Kv1.3 channels in human Jurkat E6-1 cells, sequence (P22001 whole entry): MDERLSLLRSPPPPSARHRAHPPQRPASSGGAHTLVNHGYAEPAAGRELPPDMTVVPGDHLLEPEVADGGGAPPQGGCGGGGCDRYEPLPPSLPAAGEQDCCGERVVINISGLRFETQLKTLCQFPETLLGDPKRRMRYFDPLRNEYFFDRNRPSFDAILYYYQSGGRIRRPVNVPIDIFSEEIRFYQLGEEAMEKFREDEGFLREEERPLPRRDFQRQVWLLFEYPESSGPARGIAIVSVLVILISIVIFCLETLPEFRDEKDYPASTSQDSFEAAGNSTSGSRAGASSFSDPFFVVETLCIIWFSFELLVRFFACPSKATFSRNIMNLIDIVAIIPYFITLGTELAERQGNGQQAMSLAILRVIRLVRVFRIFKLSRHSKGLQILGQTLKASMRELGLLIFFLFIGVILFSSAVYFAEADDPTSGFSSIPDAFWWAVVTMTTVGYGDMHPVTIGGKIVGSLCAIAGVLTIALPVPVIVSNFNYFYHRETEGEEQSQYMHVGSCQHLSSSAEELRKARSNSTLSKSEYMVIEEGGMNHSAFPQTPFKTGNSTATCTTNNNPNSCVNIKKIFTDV

In the case of CC(C)/N=c1\cc2n(-c3ccc(Cl)cc3)c3ccccc3nc-2cc1Nc1ccc(Cl)cc1 [Clofazimine, N,5-bis(4-chlorophenyl)-3-propan-2-ylimino phenazin-2-amine], the “outcome of gel preparation” value ([1]; solvent Laurocapram) is reported as “formation of separated layers”, the “outcome of gel preparation” value ([1]; solvent Propylene glycol) is reported as “clofazimine precipitation” and the solubility at 24 h ([2]; organic solvent or mixture) is reported as 7.48 mg/mL (≈ 15.8 mM). For the same compound, the solubility at 24 h ([2]; solvent, oil or lipid, Solubility, Castor oil) was 11 mg/mL (≈ 23.3 mM), the solubility at 24 h ([2]; solvent, oil or lipid, Solubility, Coconut oil) was 5.1 mg/mL (≈ 10.8 mM) and the solubility at 24 h ([2]; solvent, oil or lipid, Solubility, Corn oil) was 5.8 mg/mL (≈ 12.3 mM). For the same compound, the solubility at 24 h ([2]; solvent, oil or lipid, Solubility, Glyceryl monooleate) was 8.86 mg/mL (≈ 18.7 mM), the solubility at 24 h ([2]; solvent, oil or lipid, Solubility, Isopropyl myristate) was 8.51 mg/mL (≈ 18 mM) and the solubility at 24 h ([2]; solvent, oil or lipid, Solubility, Soybean oil) was 5.1 mg/mL (≈ 10.8 mM). It also gave a solubility at 24 h ([2]; solvent, organic solvent or mixture, Solubility, Ethanol) of 0.95 mg/mL (≈ 2.01 mM), a solubility at 24 h ([2]; solvent, organic solvent or mixture, Solubility, Glycerol) of 0.49 mg/mL (≈ 1.04 mM) and a solubility at 24 h ([2]; solvent, organic solvent or mixture, Solubility, Labrasol) of 25.4 mg/mL (≈ 53.6 mM). For the same compound, the solubility at 24 h ([2]; solvent, organic solvent or mixture, Solubility, Laurocapram) was 46.7 mg/mL (≈ 98.7 mM), the solubility at 24 h ([2]; solvent, organic solvent or mixture, Solubility, Oleic acid polyethylene glycol glyceride) was 12.2 mg/mL (≈ 25.8 mM) and the solubility at 24 h ([2]; solvent, organic solvent or mixture, Solubility, PEG 400, 25° C.) was 9.51 mg/mL (≈ 20.1 mM). For the same compound, the solubility at 24 h ([2]; solvent, organic solvent or mixture, Solubility, Polyglycerol fatty acid ester) was 4.96 mg/mL (≈ 10.5 mM), the solubility at 24 h ([2]; solvent, organic solvent or mixture, Solubility, Polyoxyethylene hydrogenated castor oil) was 8.67 mg/mL (≈ 18.3 mM) and the solubility at 24 h ([2]; solvent, organic solvent or mixture, Solubility, Propane 1,2-diol) was 0.42 mg/mL (≈ 0.887 mM). For the same compound, the solubility at 24 h ([2]; solvent, organic solvent or mixture, Solubility, Transcutol) was 21.6 mg/mL (≈ 45.5 mM), the solubility at 24 h ([2]; solvent, organic solvent or mixture, Solubility, Tween 20, 25° C.) was 7.4 mg/mL (≈ 15.6 mM) and the solubility at 24 h ([2]; solvent, organic solvent or mixture, Solubility, Tween 80, 25° C.) was 10.1 mg/mL (≈ 21.3 mM). The “time to reach peak plasma concentration (Tmax)” value ([3]; fasted state) was 12 h, the “time to reach peak plasma concentration (Tmax)” value ([3]; fed conditions) was 8 h and the absorption rate ([3]; oral, FDA Label information) was 45-62%. The solubility ([4]; oil or lipid, Heptanoic acid) was 78.3 mg/mL (≈ 165 mM), the solubility ([4]; oil or lipid, Hexanoic acid) was 80.7 mg/mL (≈ 170 mM) and the solubility ([4]; oil or lipid, Linoleic acid) was 90.2 mg/mL (≈ 191 mM). For the same compound, the solubility ([4]; oil or lipid, Octanoic acid) was 56.3 mg/mL (≈ 119 mM), the solubility ([4]; oil or lipid, Oleic acid) was 106 mg/mL (≈ 223 mM) and the solubility ([4]; organic solvent or mixture, Acetic acid) was 30.2 mg/mL (≈ 63.8 mM). For the same compound, the solubility ([4]; organic solvent or mixture, Butyric acid) was 49.2 mg/mL (≈ 104 mM), the solubility ([4]; organic solvent or mixture, Isovaleric acid) was 58.6 mg/mL (≈ 124 mM) and the solubility ([4]; organic solvent or mixture, Propionic acid) was 28.2 mg/mL (≈ 59.7 mM). For the same compound, the IC50 [5] was 3.3 µM, the “Inhibition ratio of Kv1.3 channel current in Jurkat E6-1 cells” value (“Inhibition ratio” for short) ([5]; 0.3 μM) was 7.09 ± 0.86% and the “Inhibition ratio” value ([5]; 1 μM) was 18.89 ± 3.38%. The “Inhibition ratio” value ([5]; 3 μM) was 46.84 ± 4.55%, the “Inhibition ratio” value ([5]; 10 μM) was 70.11 ± 2.91% and the “Inhibition ratio” value ([5]; 20 μM) was 83.62 ± 1.99%.
